Among the data in ChEMBL document CHEMBL1828546, “Aminothiophenedicarboxamides and dicyanothiopheneacetamides as effective synthetic molluscicides against Indoplanorbis exustus snail” (Eur J Med Chem, 2011) are LC50 and Activity values, retold here.

Common to all, as to type: functional
Test [1] relates to Indoplanorbis exustus. Put plainly: Molluscicidal activity against Indoplanorbis exustus after 24 hrs.
The test system of test [2] is Indoplanorbis exustus. Put plainly: Molluscicidal activity against Indoplanorbis exustus assessed as mortality at 0.06 ppm after 24 hrs.
In test [3] the test system is Indoplanorbis exustus. Description: Molluscicidal activity against Indoplanorbis exustus assessed as mortality at 0.04 ppm after 24 hrs.
The test system of test [4] is Indoplanorbis exustus. Description: Molluscicidal activity against Indoplanorbis exustus assessed as mortality at 0.02 ppm after 24 hrs.
Test [5] relates to Indoplanorbis exustus. Description: Molluscicidal activity against Indoplanorbis exustus assessed as mortality at 0.08 ppm after 24 hrs.
Test [6] concerns Indoplanorbis exustus. Put plainly: Molluscicidal activity against Indoplanorbis exustus assessed as mortality at 30 ppm after 24 hrs.
Test [7] has as its system Indoplanorbis exustus. Put plainly: Molluscicidal activity against Indoplanorbis exustus assessed as mortality at 40 ppm after 24 hrs.
Test [8] deals with Indoplanorbis exustus. Description: Molluscicidal activity against Indoplanorbis exustus assessed as mortality at 10 ppm after 24 hrs.
Test [9] concerns Indoplanorbis exustus. Description: Molluscicidal activity against Indoplanorbis exustus assessed as mortality at 20 ppm after 24 hrs.
Test [10] concerns Indoplanorbis exustus. Description: Molluscicidal activity against Indoplanorbis exustus assessed as mortality at 0.02 to 40 ppm after 24 hrs.

The structures appear in SMILES notation. The source made the active and inactive calls. No cut-off for these calls is given here.

For orientation: LC50 means the concentration lethal to half of the exposed cells or organisms. In the case of `CC(=O)Nc1sc(C#N)c(-c2cc(C(F)(F)F)cc(C(F)(F)F)c2)c1C#N`, the LC50 in the test on Indoplanorbis exustus [1] is 0.74 ppm. For the same compound, the Activity in the test with Indoplanorbis exustus [2] is 50%; with Indoplanorbis exustus [3], 30%; with Indoplanorbis exustus [4] it was 20%; with Indoplanorbis exustus [5] it was 70%.

For the compound `NC(=O)c1sc(N)c(C(N)=O)c1-c1ccc(Cl)cc1`, the Activity in the test with Indoplanorbis exustus [6] stood at 30%; in the test on Indoplanorbis exustus [7], 50%; with Indoplanorbis exustus [8] it was 0%; with Indoplanorbis exustus [9], 20%. Further, in the test on Indoplanorbis exustus [1], the LC50 was 0.604 ppm.

On to `N#Cc1sc(N)c(C#N)c1-c1cc(C(F)(F)F)cc(C(F)(F)F)c1`, for which the result with Indoplanorbis exustus [10] was inactive.

For the compound `Cc1nc2sc(C(N)=O)c(-c3ccc(Cl)cc3)c2c(=O)[nH]1`, in the test with Indoplanorbis exustus [10], the result was inactive.

In the test on Indoplanorbis exustus [1], `CC(=O)Nc1sc(C#N)c(-c2ccc(F)cc2F)c1C#N` displayed a 50% lethal concentration (LC50) of 0.763 ppm. In addition, the Activity in the test on Indoplanorbis exustus [2] amounted to 50%; in the test on Indoplanorbis exustus [3], 40%; in the test with Indoplanorbis exustus [4] it was 20%; in the test on Indoplanorbis exustus [5], 60%.

On to `NC(=O)c1sc2nc(CCl)[nH]c(=O)c2c1-c1ccc(Cl)cc1`, for which the result in the test on Indoplanorbis exustus [10] was inactive.

`NC(=O)c1sc(N)c(C(N)=O)c1-c1ccc(F)cc1F`: the Activity with Indoplanorbis exustus [6] was found to be 60%; in the test on Indoplanorbis exustus [7], 70%; in the test on Indoplanorbis exustus [8], 20%; with Indoplanorbis exustus [9] it was 40%. In the test on Indoplanorbis exustus [1], this compound had an LC50 of 0.607 ppm.

As to `N#Cc1sc(N)c(C#N)c1-c1ccc(F)cc1F`, the result in the test on Indoplanorbis exustus [10] was inactive.

As for `NC(=O)c1sc(N)c(C(N)=O)c1-c1cc(C(F)(F)F)cc(C(F)(F)F)c1`, the Activity with Indoplanorbis exustus [6] is 60%; with Indoplanorbis exustus [7], 60%; with Indoplanorbis exustus [8] it was 20%; with Indoplanorbis exustus [9], 30%. The compound further registered an LC50 in the test on Indoplanorbis exustus [1] of 0.751 ppm.

`CC(=O)Nc1sc(C#N)c(-c2ccc(Cl)cc2)c1C#N` returned an LC50 in the test on Indoplanorbis exustus [1] of 0.651 ppm. For the same compound, the Activity in the test on Indoplanorbis exustus [2] stood at 60%; in the test on Indoplanorbis exustus [3] it was 40%; in the test with Indoplanorbis exustus [4], 20%; with Indoplanorbis exustus [5], 80%.

Regarding `N#Cc1sc(N)c(C#N)c1-c1ccc(Cl)cc1`, the result with Indoplanorbis exustus [10] was inactive.
